{"source": "patent US20080292586A1", "about": "(priority 2005, published 2008)", "key": {"[1]": {"system": "MDBK cells", "settings": "bovine"}, "[2]": {"system": "H5N1 Avian influenza virus (A/VN/1203/04)", "assay": "microbe, parasite or virus in culture", "assay_type": "cell-based"}, "[3]": {"settings": "Influenza A virus, H5N1, MDBK, 72 h"}}}
{"smiles": "NC(=O)c1ncn([C@@H]2O[C@H](CO)[C@@H](O)[C@H]2O)n1", "note": "[Ribavirin]", "values": [{"measurement": "cytotoxicity profile (in words)", "setting": "[1]", "result": "toxic at concentrations above that which protected 80% of cells from H5N1 infection"}, {"measurement": "IC25", "setting": "[2]", "result": 1.01, "unit": "µg/mL"}, {"measurement": "IC50", "setting": "[2]; Influenza A virus, H5N1, MDBK", "result": 1.96, "unit": "µg/mL"}, {"measurement": "IC50", "setting": "[2]; [3]", "result": 1.69, "unit": "µg/mL"}, {"measurement": "IC90", "setting": "[2]; [3]", "result": 5.01, "unit": "µg/mL"}]}
